Tests used:
[1] = test system: non-tumor-bearing athymic BALB/c nude mice; experiment: In vivo excretion, whole-body activity measurement; set-up: species or system mouse; conditions: 4 h p.i.; activity right after injection = 100%
Experimental: 14. Determination of the in vivo excretion of the radioligands
Methods: In order to determine the retention and excretion of each radioligand, non-tumor-bearing athymic BALB/c nude mice were injected with each radioligand (n = 2−3; per radioligand). The mice were measured for radioactivity immediately after injection and at several time points after injection up to 56 h p.i. (Figure S8). The PSMA ligands were, therefore, labeled at a molar activity of 25 MBq/nmol and diluted in saline containing 0.05% bovine serum albumin (BSA). Mice were intravenously injected with the respective radioligand (25 MBq, 1 nmol, 100 µL) and – after e mptying the urinary bladder – measured in a dose calibrator immediately (t = 0) and at various time points after injection up to 56 h p.i..
The activity measured right after injection was set as 100%. The data points present the average of three mice per radioligand ± standard deviation (SD). […]
to the albumin-binding properties of the incorporated ibuprofen. The ibuprofen-bearing radioligands […]
p-tolyl moiety as stronger albumin binder. […]
excretion patterns for the single radioligands, which was manifested most prominently between 1 h and 4 h p.i. At all measured time points, retention was highest for the radioligand without additional linker entity, 177Lu-Ibu-PSMA. […]
Figure S8. […] The activity measured right after injection was set as 100%. […]

[2] = n-octanol/PBS; cited from earlier work
mouse plasma proteins = experiment: Ultrafiltration assay, binding to mouse plasma proteins; format: in vitro ADME; conditions: 37 °C, 30 min
Experimental: (§1) In short, the PSMA ligands were labeled with ^177Lu at a molar activity of 50 MBq/nmol, diluted in PBS (pH 7.4) to an activity concentration of 10 MBq/500 μL and incubated in mouse or human plasma at 37 °C for 30 min. After incubation, each sample was loaded on a centifree ultrafiltration device (4104 centrifugal filter units; Millipore, 30000 Da nominal molecular weight limit, methylcellulose micropartition membranes) and centrifuged at 2000 rpm for 40 min at 20 °C to allow the separation of the unbound and plasma-bound radioligand fractions. Samples from the loading solution and samples from the filtrate were taken and counted for radioactivity in a γ-counter. The amount of plasma-bound radioligand was calculated as the fraction of radioactivity measured […] relative to the corresponding loading solution (set to 100%). Control experiments were performed with each radioligand by incubation in PBS (pH 7.4) prior to filtration in order to determine the unspecific binding of the radioligands to the filter membrane. The experiments were performed at least three times for each radioligand. A one-way ANOVA with a Tukeys's multiple comparison post-test was used for statistical analysis in GraphPad Prism software (version 7). A p-value of <0.05 was considered statistically significant.

PSMA = target: T1, PSMA (Homo sapiens, UniProt Q04609); experiment: Determination of KD values (saturation binding on PC-3 PIP tumor cells); conditions: 30 min at 4 °C, 2-PMPA block for non-specific binding
T1 construct: expressed in transfected cells; host or cells: PC-3 PIP (PSMA-transfected subline of human PC-3 prostate cancer cells), provided by Prof; Martin Pomper
Experimental: The KD values, indicating the PSMA-binding affinity of the radioligands, were determined using PC-3 PIP tumor cells. The cells were seeded in 48-well-plates (8 x 10^4 cells in 500 µL RPMI medium/well) allowing adhesion and growth overnight. During the experiment, well plates were kept on ice. After removal of the supernatant, the cells were washed once with ice-cold PBS (pH 7.4) before addition of different concentrations (1‒2000 nM) of the radiolabeled PSMA ligands (5 MBq/nmol) in ice-cold RPMI medium without supplements. Some of the PC-3 PIP tumor cell samples were co-incubated with 2-phosphonomethyl pentanedioic acid (2-PMPA, 200 μM) to block PSMA enabling the determination of non-specific binding. After incubation of the well-plates for 30 min at 4 °C, the supernatants were removed and the cells washed twice with ice-cold PBS. The cells were lysed (NaOH, 1 M, 600 µL) and transferred to 4 mL tubes for counting the activity in a γ-counter (Wallac Wizard 1480, Perkin Elmer). The KD values were determined by plotting specific binding (total binding minus unspecific binding determined with blocking agent) against the molar concentration of the added radioligands. […] Statistical significance was assessed using a one-way ANOVA with a Tukeys's multiple comparison post-test in GraphPad Prism software (version 7). […]

[3] = test system: PC-3 PIP/flu tumor-bearing mice; set-up: method as in Benešová et al. 2018 [1]; AUC value PC-3 PIP tumor / AUC value Blood / AUC value Kidneys / AUC value Liver / AUC value Salivary glands: concentration or dose not given beside the values; conditions: previously published, ref Benešová et al. 2018 [1], cited from earlier work
human plasma proteins = experiment: Ultrafiltration assay, binding to human plasma proteins; format: in vitro ADME; conditions: 37 °C, 30 min
Experimental: as §1

[4] = Radiolytic stability at high activity concentration (HPLC); format: physicochemical; conditions: 24 h, saline with L-ascorbic acid (3 mg), 250 MBq/500 μL, room temperature
Experimental: The radiolytic stability of the PSMA radioligands (50 MBq/nmol) was determined at a high activity concentration (250 MBq/500 μL saline) over a period of 24 h in the absence or presence of L-ascorbic acid (3 mg). The samples were kept at room temperature and aliquots were taken 1 h, 4 h and 24 h after labeling in order to determine the amount of intact radioligand using HPLC as previously reported (Supplementary Material), [29].
Methods: Radioly tic stability of each PSMA radioligand was assessed over a period of 24 h. For this purpose, Ibu-PSMA, Ibu-Dα-PSMA, Ibu-N-PSMA and Ibu-DAB-PSMA were labeled with 177Lu in a volume of 120 µL at a molar activity of 50 MBq/nmol. After quality control using HPLC (t = 0, radiochemical purity ≥ 96%), the labeling solutions were diluted with saline to 250 MBq/500 µL and radioligand integrity was determined for each radioligand with and without addition of L-ascorbic acid (3 mg). The radioligand dilutions were incubated at room temperature and radioligand degradation was determined by HPLC after 1 h, 4 h and 24 h incubation time as previously reported. The HPLC chromatograms were analyzed by integration of the peaks representing the radiolabeled product, the released 177Lu as well as degradation products of unknown structure (Figure S3). […]

T1 sequence (Q04609 whole entry): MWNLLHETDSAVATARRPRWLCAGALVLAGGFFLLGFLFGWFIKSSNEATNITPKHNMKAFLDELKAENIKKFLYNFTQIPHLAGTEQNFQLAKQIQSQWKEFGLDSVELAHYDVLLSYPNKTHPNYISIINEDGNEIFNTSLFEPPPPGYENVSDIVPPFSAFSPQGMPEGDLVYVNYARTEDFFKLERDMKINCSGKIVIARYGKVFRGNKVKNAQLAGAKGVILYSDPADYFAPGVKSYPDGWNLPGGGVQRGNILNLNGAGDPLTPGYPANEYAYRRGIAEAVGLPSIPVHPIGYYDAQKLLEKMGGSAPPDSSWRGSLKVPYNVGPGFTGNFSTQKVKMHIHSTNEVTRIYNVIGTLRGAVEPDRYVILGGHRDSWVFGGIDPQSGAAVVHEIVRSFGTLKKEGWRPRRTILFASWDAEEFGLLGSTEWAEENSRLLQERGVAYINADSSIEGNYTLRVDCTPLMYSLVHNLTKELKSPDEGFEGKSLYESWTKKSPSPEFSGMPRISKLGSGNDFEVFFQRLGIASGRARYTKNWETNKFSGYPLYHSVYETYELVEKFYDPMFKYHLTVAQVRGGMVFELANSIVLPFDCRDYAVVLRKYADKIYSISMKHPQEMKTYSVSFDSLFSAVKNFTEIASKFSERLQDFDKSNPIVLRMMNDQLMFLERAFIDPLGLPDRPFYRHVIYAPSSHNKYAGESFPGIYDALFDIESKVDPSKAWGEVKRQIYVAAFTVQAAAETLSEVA

O=C([O-])CN1CCN(CC(=O)[O-])CCN(CC(=O)NCC2CCC(C(=O)N[C@@H](Cc3ccc4ccccc4c3)C(=O)NCCCC[C@H](NC(=O)N[C@@H](CCC(=O)O)C(=O)O)C(=O)O)CC2)CCN(CC(=O)[O-])CC1.[177Lu+3] (stereo partly drawn) [^177Lu-PSMA-617]
body retention of activity [1]: 3.2% | logD value [2]: -4.4 ± 0.2 | binding to mouse plasma proteins (bound fraction) (mouse plasma proteins): 6.0 ± 2% | Kd (PSMA): 13 ± 1 nM | AUC value Blood ([3]; non-decay-corrected data): 52 ± 2 % IA/g*h | AUC value Kidneys ([3]; non-decay-corrected data): 99 ± 11 % IA/g*h | AUC value Liver ([3]; non-decay-corrected data): 6.2 ± 1.6 % IA/g*h | AUC value PC-3 PIP tumor ([3]; non-decay-corrected data): 3691 ± 156 % IA/g*h | AUC value Salivary glands ([3]; non-decay-corrected data): 0.5 ± 0.2 % IA/g*h | Ratio of AUC values AUCTu-to-AUCBl ([3]; tumor-to-blood): 71 ± 6 | Ratio of AUC values AUCTu-to-AUCKi ([3]; tumor-to-kidney): 37 ± 6 | Ratio of AUC values AUCTu-to-AUCLi ([3]; tumor-to-liver): 592 ± 179 | Ratio of AUC values AUCTu-to-AUCSG ([3]; tumor-to-salivary gland): 7382 ± 3265 | binding to human plasma proteins (bound fraction) (human plasma proteins): 59 ± 1% | intact radioligand [4]: over 91%
